The values below are quoted from earlier work in US20170342372A1, “CELL CULTURE MEDIA” (MERCK PATENT GMBH, priority 2014, published 2017).

Each structure is given as a SMILES string.

For the series the following is noted: water / aqueous solvents.
As for `CC(C)C[C@H](N)C(=O)O` [leucine], the “solubility in water (in words)” value was “moderate solubility”.
As to `CC(C)[C@H](N)C(=O)O` [valine], the “solubility in water (in words)” value is given as “moderate solubility”.
With `N[C@@H](CSSC[C@H](N)C(=O)O)C(=O)O` [cystine], the “solubility in water (in words)” value is listed as “poorly soluble”.
On to `CC[C@H](C)[C@H](N)C(=O)O` [isoleucine], for which the “solubility in water (in words)” value is listed as “moderate solubility”.
